In US20100234386A1, “QUINOXALINE DERIVATIVES AS PI3 KINASE INHIBITORS” (priority 2007, published 2010):

The compounds below were run against T1, PI3Kα (Homo sapiens, UniProt P42336) (assay: PI3K Alpha Leadseeker SPA Assay). Details: in at least one experimental run; read-out: IC50 value against PI3Kα.
T1 construct: His
Assay type: biochemical
Description: PI3K Alpha Leadseeker SPA Assay
SPA imaging beads are microspheres containing scintillant which emit light in the red region of the visible spectrum. As a result, these beads are ideally suited to use with a CCD imager such as the Viewlux. The Leadseeker beads used in this system are polystyrene beads that have been coupled with polyethyleneimine. When added to the assay mixture, the beads absorb both the substrate (PIP2) and product (PIP3). Adsorbed P^33-PIP3 will cause an increase in signal, measured as ADUs (analog to digital units). This protocol details the use of the PEI-PS Leadseeker beads for assays using His-p110/p85 PI3K alpha.
The compounds are serially diluted (3-fold in 100% DMSO) across the plate from column 1 to column 12 and column 13 to column 24 and leave column 6 and 18 containing only DMSO to yield 11 concentrations for each test compound.
The assay buffer contains MOPS (pH 6.5), CHAPS, and DTT. PI3K alpha and PIP2 (L-alpha-D-myo-Phosphatidylinositol 4,5-bisphosphate[PI(4,5)P2]3-O-phospho linked, D(+)-sn-1,2-di-O-octanoylglyceryl, CellSignals # 901) are mixed and incubated in the plate with compound for 30 min prior to starting the reaction with the addition of P^33-ATP and MgCl2 (reagents added using Zoom). […] PEI-PS Leadseeker beads in PBS/EDTA/CHAPS are added (by Multidrop) to quench the reaction, and the plates are allowed to incubate for at least one hour (typically overnight) before centrifugation. The signal is determined using a Viewlux detector and is then imported into curve fitting software (Activity Base) for construction of concentration response curves. The percent inhibition of activity is calculated relative to high controls (C1, 0.1 μl DMSO in column 6, rows A-P)) and low controls (C2, 5 μl of 40 uM PIP2 in buffer in column 18, rows A-P) using, 100*(1−(U1−C2)/(C1−C2)). The concentration of test compound yielding 50% inhibition is determined using the equation, y=((Vmax*x)/(K+x))+Y2, where “K” was equal to the […]. The IC50 values are converted to pIC50 values, i.e., −log IC50 in Molar concentration.

T1 sequence (P42336 whole entry, species assumed): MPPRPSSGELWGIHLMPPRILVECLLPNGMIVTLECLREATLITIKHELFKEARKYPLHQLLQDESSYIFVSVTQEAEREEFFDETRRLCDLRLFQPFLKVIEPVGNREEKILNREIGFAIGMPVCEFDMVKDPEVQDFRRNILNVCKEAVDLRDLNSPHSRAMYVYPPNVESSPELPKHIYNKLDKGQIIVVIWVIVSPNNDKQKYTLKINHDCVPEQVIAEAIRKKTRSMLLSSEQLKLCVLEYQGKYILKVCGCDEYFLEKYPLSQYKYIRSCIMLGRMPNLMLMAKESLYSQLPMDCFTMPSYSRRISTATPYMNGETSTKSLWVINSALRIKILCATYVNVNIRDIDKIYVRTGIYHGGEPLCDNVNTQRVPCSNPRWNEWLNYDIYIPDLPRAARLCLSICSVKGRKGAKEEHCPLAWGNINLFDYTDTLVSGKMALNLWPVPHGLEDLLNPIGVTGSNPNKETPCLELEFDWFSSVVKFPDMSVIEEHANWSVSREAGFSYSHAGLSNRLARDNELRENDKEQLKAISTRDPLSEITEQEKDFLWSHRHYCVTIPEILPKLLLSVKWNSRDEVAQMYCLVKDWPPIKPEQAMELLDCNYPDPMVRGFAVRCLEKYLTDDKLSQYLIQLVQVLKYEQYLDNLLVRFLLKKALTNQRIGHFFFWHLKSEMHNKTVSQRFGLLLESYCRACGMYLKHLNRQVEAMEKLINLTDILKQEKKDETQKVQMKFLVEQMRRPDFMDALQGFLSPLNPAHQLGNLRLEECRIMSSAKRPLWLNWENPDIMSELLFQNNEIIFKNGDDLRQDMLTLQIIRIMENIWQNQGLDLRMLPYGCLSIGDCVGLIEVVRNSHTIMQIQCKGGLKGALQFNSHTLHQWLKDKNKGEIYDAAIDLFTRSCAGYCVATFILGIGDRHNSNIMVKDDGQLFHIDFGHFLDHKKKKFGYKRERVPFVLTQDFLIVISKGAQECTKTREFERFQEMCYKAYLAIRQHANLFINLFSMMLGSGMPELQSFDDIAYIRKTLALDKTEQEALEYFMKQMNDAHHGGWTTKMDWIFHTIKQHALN
T1 sequence (P27986 whole entry partner, species assumed): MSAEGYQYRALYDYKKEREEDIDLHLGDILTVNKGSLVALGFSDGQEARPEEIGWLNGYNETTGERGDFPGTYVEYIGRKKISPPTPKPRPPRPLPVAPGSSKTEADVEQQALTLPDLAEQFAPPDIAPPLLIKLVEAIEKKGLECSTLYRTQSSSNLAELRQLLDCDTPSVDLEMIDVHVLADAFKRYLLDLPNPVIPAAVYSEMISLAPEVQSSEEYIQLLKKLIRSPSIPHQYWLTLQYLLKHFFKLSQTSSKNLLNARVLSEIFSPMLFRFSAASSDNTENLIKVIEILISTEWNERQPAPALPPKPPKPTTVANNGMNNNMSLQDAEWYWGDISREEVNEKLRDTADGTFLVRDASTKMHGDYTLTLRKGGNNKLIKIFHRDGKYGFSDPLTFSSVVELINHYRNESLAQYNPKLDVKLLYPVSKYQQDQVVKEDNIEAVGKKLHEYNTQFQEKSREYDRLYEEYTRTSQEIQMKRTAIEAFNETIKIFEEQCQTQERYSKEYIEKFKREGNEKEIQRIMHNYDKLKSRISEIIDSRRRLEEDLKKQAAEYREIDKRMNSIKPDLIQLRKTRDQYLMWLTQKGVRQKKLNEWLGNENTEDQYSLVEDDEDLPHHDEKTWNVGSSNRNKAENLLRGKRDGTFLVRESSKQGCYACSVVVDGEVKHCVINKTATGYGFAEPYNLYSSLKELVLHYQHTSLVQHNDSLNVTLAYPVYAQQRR

IC50 [nM]	Compound
8	CCNc1cnc2ccc(-c3cnc(N)c(S(=O)(=O)N(C)C)c3)cc2n1 [Example 19]
200	NS(=O)(=O)c1cncc(-c2ccc3ncc(-c4ccncc4)nc3c2)c1 [Example 70]

Further lines, the compound ahead of its results:

Compound	IC50 [nM]
COc1ccc(-c2ccc3ncc(N4CCOCC4)nc3c2)cn1 [Example 2]	100
c1cc2cc(-c3ccc4ncc(N5CCOCC5)nc4c3)cnc2[nH]1 [Example 4]	50
c1cc2ncc(N3CCOCC3)nc2cc1-c1cnc2[nH]ncc2c1 [Example 1, 2-(4-morpholinyl)-7-(1H-pyrazolo[3,4-b]pyridin-5-yl)quinoxaline]	5
